Data as given in patent US8841233B2, “Herbicidal compositions comprising 4-amino-3-chloro-5-fluoro-6-(4-chloro-2-fluoro-3-methoxyphenyl) pyridine-2-carboxylic acid or a derivative thereof and 4-hydroxyphenyl-pyruvate dioxygenase (HPPD) inhibitors” (Dow Agrosciences LLC, priority 2012, dated 2014).

How the values were obtained:
SCPMA = experiment: In-water applied weed control, transplanted paddy rice, greenhouse (Example II); format: in vivo; conditions: 35 gai/ha
Protocol: (§1) Evaluation of in-Water Applied Herbicidal Mixtures for Weed Control in Transplanted Paddy Rice
(§2) Weed seeds or nutlets of the desired test plant species were planted in puddled soil (mud) prepared by mixing a shredded, non-sterilized mineral soil (50.5 percent silt, 25.5 percent clay, and 24 percent sand, with a pH of about 7.6 and an organic matter content of about 2.9 percent) and water at a 1:1 volumetric ratio. The prepared mud was dispensed in 365 mL aliquots into 16-ounce (oz.) non-perforated plastic pots with a surface area of 86.59 square centimeters (cm^2) leaving a headspace of 3 centimeters (cm) in each pot. Mud was allowed to dry overnight prior to planting or transplanting. Rice seeds were planted in Sun Gro MetroMix® 306 planting mixture, which typically has a pH of 6.0 to 6.8 and an organic matter content of about 30 percent, in plastic plug trays. Seedlings at the second or third leaf stage of growth were transplanted into 840 mL of mud contained in 32-oz. non-perforated plastic pots with a surface area of 86.59 cm^2 4 days prior to herbicide application. The paddy was created by filling the headspace of the pots with 2.5 to 3 cm of water. When required to ensure good germination and healthy plants, a fungicide treatment and/or other chemical or physical treatment was applied. The plants were grown for 4-22 days in a greenhouse with an approximate 14 h photoperiod which was maintained at about 29′C during the day and 26° C. during the night. Nutrients were added as Osmocote® (19:6:12, N:P:K+ minor nutrients) at 2 g per 16-oz. pot and 4 g per 32-oz. pot. Water was added on a regular basis to maintain the paddy flood, and supplemental lighting was provided with overhead metal halide 1000-Watt lamps as necessary. The plants were employed for testing when they reached the first through fourth true leaf stage.
(§3) Treatments consisted of the acid or esters of 4-amino-3-chloro-5-fluoro-6-(4-chloro-2-fluoro-3-methoxy-phenyl)pyridine-2-carboxylic acid (compound A) each formulated as an SC (suspension concentrate) and various herbicidal components alone and in combination. Forms of compound A were applied on an acid equivalent basis.
(§4) Other herbicidal components were applied on an active ingredient basis and included 4-hydroxyphenyl pyruvate dioxygenase (HPPD)-inhibiting herbicides mesotrione formulated as Callisto®, sulcotrione formulated as Mikado®, pyrazolynate formulated as Sunbird® 10% GR, and benzobicyclon formulated as Benzobicyclon 3.5% or technical material.
(§5) Treatment requirements for each compound or herbicidal component were calculated based upon the rates being tested, the concentration of active ingredient or acid equivalent in the formulation, an application volume of 2 mL per component per pot, and an application area of 86.59 cm^2 per pot.
(§6) For formulated compounds, a measured amount was placed in an individual 100 or 200 mL glass vial and was dissolved in a volume of 1.25% (v/v) Agri-Dex® crop oil concentrate to obtain application solutions.
(§7) For technical grade compounds, a weighed amount was placed in an individual 100 to 200 mL glass vial and was dissolved in a volume of acetone to obtain concentrated stock solutions. […] The concentrated stock solutions obtained were diluted with an equivalent volume of an aqueous mixture containing 2.5% (v/v) crop oil concentrate so that the final application solutions contained 1.25% (v/v) crop oil concentrate.
(§8) Applications were made by injecting with a pipetter appropriate amounts of the application solutions, individually and sequentially, into the aqueous layer of the paddy. Control plants were treated in the same manner with the solvent blank. Applications were made so that all treated plant material received the same concentrations of acetone and crop oil concentrate.
(§9) The treated plants and control plants were placed in a greenhouse as described above and water was added as needed to maintain a paddy flood. […]

DIGSA = experiment: Post-emergence foliar-applied weed control, greenhouse (Example I); format: in vivo, Digitaria sanguinalis (L.) Scop.
Source text: (§10) Evaluation of Post-emergence Foliar-Applied Herbicidal Mixtures for Weed Control in Direct Seeded Rice
(§11) Seeds or nutlets of the desired test plant species were planted in a soil matrix prepared by mixing a loam or sandy loam soil (e.g., 28.6 percent silt, 18.8 percent clay, and 52.6 percent sand, with a pH of about 5.8 and an organic matter content of about 1.8 percent) and calcareous grit in an 80 to 20 ratio. The soil matrix was contained in plastic pots with a volume of 1 quart and a surface area of 83.6 square centimeters (cm^2). When required to ensure good germination and healthy plants, a fungicide treatment and/or other chemical or physical treatment was applied. The plants were grown for 8-22 days in a greenhouse with an approximate 14 h photoperiod which was maintained at about 29° C. during the day and 26° C. during the night. Nutrients (Peters Excel® 15-5-15 5-Ca 2-Mg and iron chelate) were applied in the irrigation solution as needed and water was added on a regular basis. Supplemental lighting was provided with overhead metal halide 1000-Watt lamps as necessary. The plants were employed for testing when they reached the first through fourth true leaf stage.
as §3, with “(Compound A),” for “(compound A)”, “concentrate),” for “concentrate)”, “Compound” for “compound”
as §4, with “3.5%.” for “3.5% or technical material.”
(§12) Treatment requirements were calculated based upon the rates being tested, the concentration of active ingredient or acid equivalent in the formulation, and a 12 mL application volume at a rate of 187 L/ha.
(§13) For treatments comprised of formulated compounds, measured amounts of compounds were placed individually in 25 mL glass vials and diluted in a volume of 1.25% (v/v) Agri-Dex® crop oil concentrated to obtain 12× stock solutions. […] Application solutions were prepared by adding an appropriate amount of each stock solution (e.g., 1 mL) and diluted to the appropriate final concentrations with the addition of 10 mL of an aqueous mixture of 1.25% (v/v) crop oil concentrate so that the final spray solutions contained 1.25+/−0.05% (v/v) crop oil concentrate.
(§14) For treatments comprised of formulated and technical compounds, weighed amounts of the technical materials were placed individually in 25 mL glass vials and dissolved in a volume of 97:3 v/v acetone/DMSO to obtain 12× stock solutions, and measured amounts of the formulated compounds were placed individually in 25 mL glass vials and diluted in a volume of 1.5% (v/v) crop oil concentrate or water to obtain 12× stock solutions. […] Application solutions were prepared by adding an appropriate amount of each stock solution (e.g., 1 mL) and diluted to the appropriate final concentrations with the addition of an appropriate amount of an aqueous mixture of 1.5% (v/v) crop oil concentrate so that the final spray solutions contained 1.25% (v/v) crop oil concentrate. As required, additional water and/or 97:3 v/v acetone/DMSO was added to individual application solutions so that the final acetone and DMSO concentrations of the application solutions being compared were 8.1% and 0.25%, respectively.
(§15) All stock solutions and applications solutions were visually inspected for compound compatibility prior to application. Spray solutions were applied to the plant material with an overhead Mandel track sprayer equipped with a 8002E nozzles calibrated to deliver 187 L/ha over an application area of 0.503 m^2 at a spray height of 18 to 20 inches (46 to 50 cm) above average plant canopy height. […]

SCPJU = experiment: as above; format: in vivo, Schoenoplectus juncoides (Roxb.) Palla
Source text: as §10, §11
as §3, with “(Compound A),” for “(compound A)”, “concentrate),” for “concentrate)”, “Compound” for “compound”
as §4, with “3.5%.” for “3.5% or technical material.”
as §12, §13, §14, §15

ECHCG [1] = experiment: In-water applied weed control, transplanted paddy rice, greenhouse (Example II); format: in vivo, Echinochloa crusgalli (L.) Beauv.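 Further: visual score 0 no injury to 100 complete kill versus untreated plants.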
Protocol: as §1, §2, §3, §4, §5, §6, §7, §8, §9

CYPIR = experiment: Post-emergence foliar-applied weed control, greenhouse (Example I); format: in vivo, Cyperus iria L.
Source text: as §10, §11
as §3, with “(Compound A),” for “(compound A)”, “concentrate),” for “concentrate)”, “Compound” for “compound”
as §4, with “3.5%.” for “3.5% or technical material.”
as §12, §13, §14, §15

ECHOR = experiment: In-water applied weed control, transplanted paddy rice, greenhouse (Example II); format: in vivo, Echinochloa oryzoides (Ard.) Fritsch
Protocol: as §1, §2, §3, §4, §5, §6, §7, §8, §9

BRAPP = experiment: Post-emergence foliar-applied weed control, greenhouse (Example I); format: in vivo
Source text: as §10, §11
as §3, with “(Compound A),” for “(compound A)”, “concentrate),” for “concentrate)”, “Compound” for “compound”
as §4, with “3.5%.” for “3.5% or technical material.”
as §12, §13, §14, §15

IPOHE = experiment: as above; format: in vivo, Ipomoea hederacea Jacq.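 On Visual Weed Control (%) - 20 DAA IPOHE Obs: visual score 0 no injury to 100 complete kill versus untreated plants.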
Source text: as §10, §11
as §3, with “(Compound A),” for “(compound A)”, “concentrate),” for “concentrate)”, “Compound” for “compound”
as §4, with “3.5%.” for “3.5% or technical material.”
as §12, §13, §14, §15

FIMMI = experiment: In-water applied weed control, transplanted paddy rice, greenhouse (Example II); format: in vivo, Fimbristylis miliacea (L.) Vahl; conditions: 35 gai/ha
Protocol: as §1, §2, §3, §4, §5, §6, §7, §8, §9

ECHCO = experiment: Post-emergence foliar-applied weed control, greenhouse (Example I); format: in vivo, Echinochloa colona (L.) Link
Source text: as §10, §11
as §3, with “(Compound A),” for “(compound A)”, “concentrate),” for “concentrate)”, “Compound” for “compound”
as §4, with “3.5%.” for “3.5% or technical material.”
as §12, §13, §14, §15

ECHCG [2] = experiment: as above; format: in vivo, Echinochloa crusgalli (L.) Beauv.
Source text: as §10, §11
as §3, with “(Compound A),” for “(compound A)”, “concentrate),” for “concentrate)”, “Compound” for “compound”
as §4, with “3.5%.” for “3.5% or technical material.”
as §12, §13, §14, §15

CS(=O)(=O)c1ccc(C(=O)C2C(=O)CCCC2=O)c([N+](=O)[O-])c1 [Mesotrione, 2-[4-(methylsulfonyl)-2-nitrobenzoyl]-1,3-cyclohexanedione, reference compound]
Visual Weed Control (%) - 21 DAA SCPMA Obs (SCPMA): 80% | Visual Weed Control (%) - 20 DAA DIGSA Obs (DIGSA; 140 gaiha): 58% | Visual Weed Control (%) - 20 DAA SCPJU Obs (SCPJU; 17.5 gai/ha): 50% | Visual Weed Control (%) - 20 DAA SCPJU Obs (SCPJU; 35 gai/ha): 80% | Visual Weed Control (%) - 20 DAA ECHCG Obs (ECHCG [1]; 35 gai/ha): 10% | Visual Weed Control (%) - 20 DAA ECHCG Obs (ECHCG [1]; 70 gai/ha): 25% | Visual Weed Control (%) - 20 DAA CYPIR Obs (CYPIR; 17.5 gai/ha): 0% | Visual Weed Control (%) - 20 DAA CYPIR Obs (CYPIR; 35 gai/ha): 50% | Visual Weed Control (%) - 20 DAA ECHOR Obs (ECHOR; 140 gaiha): 80% | Visual Weed Control (%) -20 DAA ECHOR Obs (ECHOR; 140 gaiha): 80% | Visual Weed Control (%) - 20 DAA BRAPP Obs (BRAPP; 17.5 gai/ha): 0% | Visual Weed Control (%) - 20 DAA BRAPP Obs (BRAPP; 35 gai/ha): 0% | Visual Weed Control (%) - 20 DAA IPOHE Obs (IPOHE; 35 gai/ha): 25% | Visual Weed Control (%) - 20 DAA IPOHE Obs (IPOHE; 70 gai/ha): 50% | Visual Weed Control (%) - 21 DAA FIMMI Obs (FIMMI): 78% | Visual Weed Control (%) - 20 DAA ECHCO Obs (ECHCO; 17.5 gai/ha): 0% | Visual Weed Control (%) - 20 DAA ECHCO Obs (ECHCO; 35 gai/ha): 0% | Visual Weed Control (%) - 20 DAA ECHCO Obs (ECHCO; 70 gai/ha): 0%

CS(=O)(=O)c1ccc(C(=O)C2C(=O)CCCC2=O)c(Cl)c1 [Sulcotrione, 2-[2-chloro-4-(methylsulfonyl)benzoyl]-1,3-cyclohexanedione, reference compound]
Visual Weed Control (%) - 20 DAA DIGSA Obs (DIGSA; 37.5 gai/ha): 25% | Visual Weed Control (%) - 20 DAA ECHCG Obs (ECHCG [1]; 22.5 gai/ha): 0% | Visual Weed Control (%) - 20 DAA ECHCG Obs (ECHCG [2]; 37.5 gai/ha): 0% | Visual Weed Control (%) - 20 DAA ECHCG Obs (ECHCG [2]; 75 gai/ha): 20% | Visual Weed Control (%) - 20 DAA ECHCG Obs (ECHCG [2]; 150 gai/ha): 95% | Visual Weed Control (%) - 20 DAA ECHOR Obs (ECHOR; 22.5 gai/ha): 10% | Visual Weed Control (%) - 20 DAA BRAPP Obs (BRAPP; 37.5 gai/ha): 0% | Visual Weed Control (%) - 20 DAA BRAPP Obs (BRAPP; 75 gai/ha): 20% | Visual Weed Control (%) - 20 DAA BRAPP Obs (BRAPP; 150 gai/ha): 60% | Visual Control (%) - 20 DAA IPOHE Obs (IPOHE; 37.5 gai/ha): 20% | Visual Weed Control (%) - 20 DAA IPOHE Obs (IPOHE; 37.5 gai/ha): 20% | Visual Weed Control (%) - 20 DAA IPOHE Obs (IPOHE; 75 gai/ha): 30% | Visual Weed Control (%) - 20 DAA IPOHE Obs (IPOHE; 150 gai/ha): 80% | Visual Weed Control (%) - 20 DAA ECHCO Obs (ECHCO; 37.5 gai/ha): 15% | Visual Weed Control (%) - 20 DAA ECHCO Obs (ECHCO; 75 gai/ha): 35% | Visual Weed Control (%) - 20 DAA ECHCO Obs (ECHCO; 150 gai/ha): 95%
